Results taken from the supplement of paper PMC10307832.

Key:
Test in all cases: relative viability (nuclei count vs DMSO), 5 days (fraction); higher = more cells survive
MLN4924 + Trametinib = compound: NS(=O)(=O)OC[C@@H]1C[C@@H](n2ccc3c(N[C@H]4CCc5ccccc54)ncnc32)C[C@@H]1O [MLN4924] + CC(=O)Nc1cccc(-n2c(=O)n(C3CC3)c(=O)c3c(Nc4ccc(I)cc4F)n(C)c(=O)c(C)c32)c1 [Trametinib] (partner 0.02 µM)
Procedure, shortened: (§1)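 Relative viability was taken as the ratio of nuclei in treated wells to nuclei in vehicle wells. Lung cancer cell lines in 1536-well plates received compounds by pin tool one day after seeding, either one drug alone or a fixed anchor-drug dose plus five library-drug doses (not always all listed) in √10 steps. Nuclei were counted on 4× images after 5 days of treatment, and values are medians of duplicate plates.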

Carboplatin + Luminespib = compound: C1CC(C1)(C(=O)O)C(=O)O.[NH2-].[NH2-].[Pt+2] [Carboplatin] + CCNC(=O)c1noc(-c2cc(C(C)C)c(O)cc2O)c1-c1ccc(CN2CCOCC2)cc1 [Luminespib] (partner 0.01 µM)
Procedure, shortened: as §1

Carboplatin + Pictilisib = compound: C1CC(C1)(C(=O)O)C(=O)O.[NH2-].[NH2-].[Pt+2] [Carboplatin] + CS(=O)(=O)N1CCN(Cc2cc3nc(-c4cccc5[nH]ncc45)nc(N4CCOCC4)c3s2)CC1 [Pictilisib] (partner 1 µM)
Procedure, shortened: as §1

Carboplatin + Bortezomib = compound: C1CC(C1)(C(=O)O)C(=O)O.[NH2-].[NH2-].[Pt+2] [Carboplatin] + CC(C)C[C@H](NC(=O)[C@H](Cc1ccccc1)NC(=O)c1cnccn1)B(O)O [Bortezomib] (partner 0.002 µM)
Procedure, shortened: as §1

| Cell Line | relative viability (MLN4924 + Trametinib; first compound 0.04 µM) | relative viability (MLN4924 + Trametinib; first compound 0.1265 µM) | relative viability (MLN4924 + Trametinib; first compound 0.4 µM) | relative viability (MLN4924 + Trametinib; first compound 1.265 µM) | relative viability (MLN4924 + Trametinib; first compound 4 µM) | relative viability (Carboplatin + Luminespib; first compound 0.08 µM) | relative viability (Carboplatin + Luminespib; first compound 0.253 µM) | relative viability (Carboplatin + Luminespib; first compound 0.8 µM) | relative viability (Carboplatin + Luminespib; first compound 2.53 µM) | relative viability (Carboplatin + Luminespib; first compound 8 µM) | relative viability (Carboplatin + Pictilisib; first compound 0.08 µM) | relative viability (Carboplatin + Pictilisib; first compound 0.253 µM) | relative viability (Carboplatin + Pictilisib; first compound 0.8 µM) | relative viability (Carboplatin + Pictilisib; first compound 2.53 µM) | relative viability (Carboplatin + Pictilisib; first compound 8 µM) | relative viability (Carboplatin + Bortezomib; first compound 0.08 µM) | relative viability (Carboplatin + Bortezomib; first compound 0.253 µM) | relative viability (Carboplatin + Bortezomib; first compound 0.8 µM) | relative viability (Carboplatin + Bortezomib; first compound 2.53 µM) | relative viability (Carboplatin + Bortezomib; first compound 8 µM) |
| --- | --- | --- | --- | --- | --- | --- | --- | --- | --- | --- | --- | --- | --- | --- | --- | --- | --- | --- | --- | --- |
| SK-LU-1 | 0.556 | 0.652 | 0.347 | 0.269 | 0.234 | 0.22 | 0.21 | 0.192 | 0.21 | 0.198 | 0.542 | 0.664 | 0.528 | 0.542 | 0.411 | 1.79 | 1.26 | 1.44 | 1.21 | 0.582 |
| COR-L 105 | 0.433 | 0.417 | 0.422 | 0.3 | 0.339 | 1.04 | 0.851 | 0.677 | 0.667 | 0.648 | 0.403 | 0.391 | 0.422 | 0.427 | 0.34 | 0.89 | 0.745 | 0.832 | 0.794 | 0.424 |
| COR-L23 | 0.633 | 0.683 | 0.416 | 0.162 | 0.122 | 0.617 | 0.678 | 0.568 | 0.254 | 0.163 | 0.933 | 0.782 | 0.735 | 0.512 | 0.253 | 0.887 | 0.987 | 0.918 | 0.707 | 0.355 |
| NCI-H3122 | 0.25 | 0.162 | 0.204 | 0.136 | 0.098 | 0.102 | 0.0787 | 0.0812 | 0.09 | 0.0968 | 0.62 | 0.659 | 0.549 | 0.593 | 0.563 | 1.07 | 1.02 | 1.01 | 0.944 | 0.96 |
| NCI-H23 | 0.403 | 0.391 | 0.326 | 0.201 | 0.167 | 0.194 | 0.237 | 0.208 | 0.173 | 0.233 | 0.477 | 0.483 | 0.481 | 0.472 | 0.391 | 1.1 | 1.11 | 1.08 | 0.861 | 0.784 |
| PC-3 [JPC-3] | 0.625 | 0.727 | 0.495 | 0.538 | 0.374 | 0.807 | 0.749 | 0.616 | 0.716 | 0.703 | 0.912 | 0.684 | 0.761 | 0.701 | 0.706 | 0.928 | 0.81 | 0.748 | 0.798 | 0.742 |
| NCI-H2228 | 0.537 | 0.496 | 0.255 | 0.168 | 0.125 | 0.179 | 0.136 | 0.115 | 0.158 | 0.132 | 0.547 | 0.385 | 0.446 | 0.326 | 0.312 | 1.05 | 1.35 | 1.07 | 0.905 | 0.467 |
| A549 | – | – | – | – | – | – | – | – | – | – | 0.579 | 0.51 | 0.527 | 0.459 | 0.125 | – | – | – | – | – |
| NCI-H358 | 0.167 | 0.137 | 0.138 | 0.115 | 0.0882 | 0.359 | 0.77 | 0.259 | 0.409 | 0.222 | 0.373 | 0.366 | 0.321 | 0.448 | 0.376 | – | – | – | – | – |
